{"source": "patent US11530229B2", "about": "“Cyano cyclobutyl compounds for CBL-B inhibition and uses thereof” (Nurix Therapeutics, Inc., priority 2019, dated 2022)", "tested_on": "syngeneic TC-1 cell tumor", "assay": "Tumor growth response (partial responders), Cbl-b inhibitor plus cancer vaccine, Biological Example 11", "type": "in vivo, C57BL/6 mice", "conditions": "significant decrease in tumor volume relative to control mice without Cbl-b inhibitor or vaccine; 10 mice per group", "description": "In brief, the combination therapy was tested in C57BL/6 mice bearing a syngeneic TC-1 cell tumor. TC-1 cells were derived from primary murine lung cells, which had been transfected with human papillomavirus strain 16 (HPV16) early proteins 6 and 7 (E6 and E7) and an activated human c-Ha-ras oncogene (Lin et al., Cancer Research, 56: 21-26, 1996). Either 2.5×10^4 (first study) or 5.0×10^4 (second study) TC-1 cells (obtained from Johns Hopkins University) were injected subcutaneously into the mid flank of each mouse. Tumors were allowed to grow to 50-100 mm^3 at which time the animals were randomized and treatment was initiated (Day 0). […]\nTumor size was recorded twice a week starting on Day 0 (Day 14 post TC-1 injection) and continued through duration of dosing until humane endpoints were reached between Day 33 and Day 42 (=between Day 47 and Day 56 post TC-1 injection). The level of response was evaluated by comparing tumor growth in the test mice versus the control mice (10 mice per group). In addition, the level of immune activation was assessed by collecting tumors for analysis of tumor infiltrating lymphocytes (TILs) on Day 10 (=Day 24 post TC-1 injection) in test and control mice (6 mice per group). […]"}
{"smiles": "Cc1cc(C(=O)Nc2cccc(C3(Cc4nncn4C)COC3)c2)nc(C2CC2)n1", "note": "[Compound 60]", "values": [{"measurement": "partial responders", "value": "0/10"}]}
